# Measured values taken from US8916542B2, “Chitosan derivatives, compositions and related methods of use” (Synedgen, Inc., priority 2008, dated 2014).
# Like-named read-outs stand apart in the source and are kept apart here.
# Key:
# [1] = tested on: Pseudomonas aeruginosa, PA01; experiment: MIC of antibiotics with added chitosan-arginine (live/dead checkerboard); assay type: cell-based; settings: for factor of decrease of MIC: addition of 4 μg/ml chitosan-arginine
# Method: The assay was conducted as follows. In each case, the minimum inhibitory concentration (MIC) in μg/ml was determined for the antibiotic alone against Pseudomonas aeruginosa.
# [2] = tested on: Mupirocin and Methicilin resistant Staphylcoccus aureus (MMRSA, 2-4C strain); experiment: Checkerboard time course assay (vCFU) in water; assay type: cell-based, Staphylococcus aureus
# Method: (§1) The plate was allowed to sit for 24 hours, before being centrifuged at 4000 RPM for 10 minutes, and resuspended in an appropriate enriched growth media (LB or Todd Hewitt Broth). The optical density of the plate was read over the course of 24 hours at 37° C. The optical density readings were used to compute a time to an arbitrary threshold of 0.25, which is correlated using a growth curve for this MMRSA, to virtual colony forming (vCFU) counts.
# MMRSA = experiment: Sensitization summary: MMRSA to Mupirocin; assay type: cell-based, Staphylococcus aureus; settings: Mupirocin resistance breakpoint 8 μg/mL
# Method: (§2) By definition, resistance is defined by a “resistance breakpoint” above which a bacterium is considered resistant (and is related to side effects and toxicity).
# as §1
# [3] = tested on: MRSA strain MW-2 (ATCC BAA-1707); experiment: Checkerboard vCFU assay chitosan-arginine and Oxacillin in PBS; assay type: cell-based, Staphylococcus aureus; settings: alone
# Method: Approximately 10^6 cells/mL were added to each well. Incubation occurred at ambient temperature for 20 h, then bacteria were centrifuged and resuspended in an appropriate growth media. The optical density (OD) was read over the course of 18 h at 37° C. The time (in seconds) to an arbitrary threshold OD of 0.15 was used with reference to a growth curve, to calculate the initial bacterial concentration of bacteria (vCFU).
# MRSA = experiment: Sensitization summary: MRSA to Oxacillin; assay type: cell-based, Staphylococcus aureus
# Method: as §2
# (§3) Approximately 10^5 cells were added to each of the wells. […] Optical density readings of the plate were taken, and averaged to determine inhibited samples Inhibition is defined by the final optical density (OD) being less than or equal to ½ the control OD.
# [4] = tested on: MRSA strain MW-2 (ATCC BAA-1707); experiment: Chitosan-arginine/Oxacillin checkerboard growth inhibition assay; assay type: cell-based, Staphylococcus aureus; settings: chitosan-arginine 1 μg/mL alone or Oxacillin 0.78 μg/mL alone
# Method: Approximately 10^5 cells was added to each of the wells. The optical density of the plate was read over the course of 24 hours at 37° C.
# [5] = tested on: MRSA strain MW-2 (ATCC BAA-1707); experiment: Standard checkerboard assay in Mueller Hinton media, chitosan-arginine and Oxacillin; assay type: cell-based; settings: Staphylococcus aureus
# Method: Bacteria were incubated at 37° C. for the standard 20 hours. MRSA MIC values were obtained by OD595 (optical density). The entire experiment was repeated three times.
# [6] = tested on: P. aeuriginosa strain PA01 (ATCC BAA-47); experiment: Checkerboard assay chitosan-arginine and Tobramycin; assay type: cell-based; settings: Pseudomonas aeruginosa, ATCCBAA47, read-out: Tobramycin (MIC), alone; determined alongside each C/A lot
# Method: Bacteria were incubated at 37° C. for the standard 20 hours.
# P. aeuriginosa produces the fluorescent pigment pyocyanin, which can be correlated with bacterial growth.
# [7] = tested on: VRE (Vancomycin resistant Enterococcus); experiment: Sensitization summary: VRE to Vancomycin; assay type: cell-based, Enterococcus faecium; settings: for Antibiotic concentration (MIC) in presence of chitosan-arginine: 24 hour treatment
# From the text: as §2
# A. baumannii = experiment: Sensitization summary: A. baumannii to Gentamicin; assay type: cell-based, Acinetobacter baumannii
# From the text: as §2
# K. pneumoniae = experiment: Sensitization summary: K. pneumoniae to Gentamicin; assay type: cell-based, Klebsiella pneumoniae
# Method: as §2, §3
# [8] = 0 μg/ml chitosan-arginine added (antibiotic alone)
# [9] = 0.5 μg/ml chitosan-arginine added
# [10] = 1 μg/ml chitosan-arginine added
# [11] = 2 μg/ml chitosan-arginine added
# [12] = 4 μg/ml chitosan-arginine added, * = lowest value measured
# [13] = with chitosan-arginine 0.125 μg/mL, 24 hour treatment
compound,measurement,setting,value
O=C(O)c1cn(C2CC2)c2cc(N3CCNCC3)c(F)cc2c1=O [Ciprofloxacin],MIC of antibiotic,[1]; [8],2 µg/mL
same,MIC of antibiotic,[1]; [9],1 µg/mL
same,MIC of antibiotic,[1]; [10],1 µg/mL
same,MIC of antibiotic,[1]; [11],.5 µg/mL
same,factor of decrease of MIC,[1],≥ 80
C/C(=C\C(=O)OCCCCCCCCC(=O)O)C[C@@H]1OC[C@H](C[C@@H]2O[C@H]2[C@@H](C)[C@H](C)O)[C@@H](O)[C@H]1O [Mupirocin],effect of mupirocin alone on MMRSA,[2]; 1 μg/mL,completely ineffective
same,antibacterial effectiveness of Mupirocin alone,[2]; doses below 64 to 128 μg/mL,ineffective
same,mupirocin concentration at which MMRSA is sensitive,"[2]; mupirocin alone, 24 hours in water",128 µg/mL
same,lowest Mupirocin dose to which MMRSA is sensitized,[2]; with 4 μg/mL chitosan-arginine,8 µg/mL
same,MIC of antibiotic alone against resistant bacteria,MMRSA,MMRSA (>64) μg/mL
Cc1onc(-c2ccccc2)c1C(=O)N[C@@H]1C(=O)N2[C@@H]1SC(C)(C)[C@@H]2C(=O)O [Oxacillin],bactericidal concentration,[3],> 6.25 µg/mL
same,MIC of antibiotic alone against resistant bacteria,"MRSA; MRSA, Oxacillin resistance breakpoint 4 μg/mL",MRSA (>25) μg/mL
same,Antibiotic concentration (MIC) in presence of chitosan-arginine,"MRSA; with chitosan-arginine 4 μg/mL, 24 hour treatment",0.2 µg/mL
same,"effect on growth of the bacteria, agent alone",[4],Neither antimicrobial alone had a significant an effect
same,MIC,[5]; read-out: MIC of Oxa alone,4 µg/mL
same,MIC,[5]; read-out: MIC of Oxa with C/A,1 µg/mL
CO[C@H]1/C=C/O[C@@]2(C)Oc3c(C)c(O)c4c(O)c(c(/C=N/N5CCN(C)CC5)c(O)c4c3C2=O)NC(=O)/C(C)=C\C=C\[C@H](C)[C@H](O)[C@@H](C)[C@@H](O)[C@@H](C)[C@H](OC(C)=O)[C@@H]1C [Rifampicin],MIC of antibiotic,[1]; [8],8 µg/mL
same,MIC of antibiotic,[1]; [9],4 µg/mL
same,MIC of antibiotic,[1]; [10],2 µg/mL
same,MIC of antibiotic,[1]; [11],1 µg/mL
same,MIC of antibiotic,[1]; [12],0.5 µg/mL
same,factor of decrease of MIC,[1],16
[Ag] [Silver],MIC of antibiotic,[1]; [8],0.042 µg/mL
same,MIC of antibiotic,[1]; [9],0.021 µg/mL
same,MIC of antibiotic,[1]; [10],0.021 µg/mL
same,MIC of antibiotic,[1]; [11],0.005 µg/mL
same,MIC of antibiotic,[1]; [12],≤ 0.001* μg/ml
same,factor of decrease of MIC,[1],≥ 40
NC[C@H]1O[C@H](O[C@H]2[C@H](O)[C@@H](O[C@H]3O[C@H](CO)[C@@H](O)[C@H](N)[C@H]3O)[C@H](N)C[C@@H]2N)[C@H](N)C[C@@H]1O [Tobramycin],MIC,[6],0.5 µg/mL
CN[C@H](CC(C)C)C(=O)N[C@H]1C(=O)N[C@@H](CC(N)=O)C(=O)N[C@H]2C(=O)N[C@H]3C(=O)N[C@H](C(=O)N[C@H](C(=O)O)c4cc(O)cc(O)c4-c4cc3ccc4O)[C@H](O)c3ccc(c(Cl)c3)Oc3cc2cc(c3O[C@@H]2O[C@H](CO)[C@@H](O)[C@H](O)[C@H]2O[C@H]2C[C@](C)(N)[C@H](O)[C@H](C)O2)Oc2ccc(cc2Cl)[C@H]1O [Vancomycin],MIC of antibiotic alone against resistant bacteria,"[7]; VRE, Vancomycin resistance breakpoint 32 μg/mL",VRE (>32) μg/mL
same,Antibiotic concentration (MIC) in presence of chitosan-arginine,[7]; with chitosan-arginine 2 μg/mL,2 µg/mL
same,Antibiotic concentration (MIC) in presence of chitosan-arginine,[7]; with chitosan-arginine 4 μg/mL,12.5 µg/mL
Gentamicin,MIC of antibiotic alone against resistant bacteria,"A. baumannii; A. baumannii, Gentamicin resistance breakpoint 64 μg/mL",A. baumannii (64) μg/mL
same,Antibiotic concentration (MIC) in presence of chitosan-arginine,A. baumannii; [13],16 µg/mL
same,MIC of antibiotic alone against resistant bacteria,"K. pneumoniae; K. pneumoniae, Gentamicin resistance breakpoint 64 μg/mL",K. pneumoniae (64) μg/mL
same,Antibiotic concentration (MIC) in presence of chitosan-arginine,K. pneumoniae; [13],16 µg/mL
Neomycin,MIC of antibiotic,[1]; [8],8 µg/mL
same,MIC of antibiotic,[1]; [9],4 µg/mL
same,MIC of antibiotic,[1]; [10],2 µg/mL
same,MIC of antibiotic,[1]; [11],1 µg/mL
same,MIC of antibiotic,[1]; [12],0.5 µg/mL
same,factor of decrease of MIC,[1],16
